Source: US6596878B2, “Methods and compositions for inhibiting cell proliferative disorders” (Yissum Research & Development Company of the Hebrew …, priority 1994, dated 2003)

tested on: SKOV3 cells; assay: SKOV3 soft agar colony growth assay; format: cell-based; conditions: Homo sapiens, SK-OV-3, 336 h, Table V, colony growth 2 weeks, read-out: Estimated IC50 Growth Assays SKOV3 cells
Text: This example illustrates the ability of the exemplary compounds to inhibit receptor tyrosine kinases, such as HER2 and/or EGFR. The following target cells were used for cellular kinaseassays: NIH3T3 clone C7 (Honegger et al., supra) engineered to over-express human EGF receptor; NIH3T3 cells engineered to over-express a chimeric receptor containing the EGFR extracellular domain and the HER2 intracellular kinase domain; the human mammary carcinoma line BT474 (ATCC HTB2) expressing HER2; and the human glioblastoma line U1242 that expresses PDGFR-β. Growth assays were carried out using human mammary epithelial SKBR3 (ATCC HTB30) cells, SKOV3 (ATCC HTB77) human ovarian cancer cell line, A431 cells, MCF7 human breast carcinoma cells, MCF7 cells overexpress the HER2 kinase (MCF7-HER2), NIH3T3 cells, and NIH3T3 cells overexpressing the HER2 kinase (3T3-HER2).
SKOV3 cells also over-express HER2. These cells were plated into soft agar with a test compound and colony growth was quantified 2 weeks. later using an Omnicon colony counter.
6. Soft Agar Assay Protocol
The soft agar assay is well known in the art as a method for measuring the effects of substances on cell growth. Unless otherwise stated the soft agar assays were carried out as follows:
(1) A Water bath set at 39° C. and another water bath at 37° C.
(2) 2×assay medium is comprised of 2×Dulbecco's Modified Eagle's Medium (DMEM) (Gibco Cat. #CA400-4ANO3) supplemented by the following:
20% Fetal Bovine Serum (FBS)
Non-essential Amino Acids (1:50 from 100×stock)
(3) 1×assay medium made of 1×DMEM supplemented with 10% FBS, 1 mM sodium pyruvate, 2 mM glutamine, 10 mM HEPES, non-essential amino acid (1:100 from 100×stock).
(4) 1.6% SeaPlaque Agarose in autoclave bottle
(5) Sterile 35 mm Corning plates (FMC Bioproducts Cat. #50102)
(6) Sterile 5 ml glass pipets (individually wrapped)
(7) Sterile 15 ml and 50 ml conical centrifuge tubes
(8) Pipets and sterile tips
(9) Sterile microcentrifuge tubes
(10) Cells in T75 flasks: SKOV-3 (ACTT HTB77).
(12) Procedure for making the base layer:
(a) Have all the media warmed up in the 37° C. water bath.
(b) To make 1×of assay medium+0.8% agar: make a 1:2 (vol:vol) dilution of melted agar (cooled to 39° C.), with 2×assay medium.
(c) Keep all media with agar warm in the 39° C. water bath when not in use.
(d) Dispense 1 ml of 1×assay medium+0.8% agar into dishes and gently swirl plate to form a uniform base layer. Bubbles should be avoided.
(e) Refrigerate base layers to solidify (about 20 minutes). Base layers can be stored overnight in the refrigerator.
(13) Procedure for collecting cells:
(a) Take out one flask per cell line from the incubator; aspirate off medium; wash once with PBS and aspirate off; add 3 ml of trypsin solution. […]
(d) Colonies that are 60 microns and larger are scored positive.

IC50 | Structure (SMILES)
20 µM | N#C/C(=C\c1ccc(O)c(O)c1)C(=S)NCc1ccccc1 [Compound M13]
4.5 µM | N#C/C(=C\c1cc(O)c(O)c(I)c1)C(=O)NCCCc1ccccc1 [Compound M16]
17 µM | N#C/C(=C\c1ccc(O)c(O)c1)C(=O)Nc1cccc(C(F)(F)F)c1 [Compound M15]
0.5 µM | CC(C)(C)c1cc(/C=C(\C#N)C(N)=S)cc(C(C)(C)C)c1O [Compound M11]
